From the supplement of paper PMC6045584
± gives the standard deviation of the averaged measurements.

Legend:
[1] = compound: C=CCNC1=C2C[C@@H](C)C[C@H](OC)[C@H](O)[C@@H](C)/C=C(\C)[C@H](OC(N)=O)[C@@H](OC)/C=C\C=C(/C)C(=O)NC(=CC1=O)C2=O [17-AAG]; assay: surviving fraction relative to DMSO-only wells; higher = less growth inhibition; settings: exposure time: 5 days
Procedure, shortened: (§1)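 Tumour cell lines in log phase were plated in 384-well plates at 250–500 cells per well, then, after 24 hours, exposed continuously for five days to inhibitors at 0.5, 1, 5, 10, 50, 100, 500 and 1000 nM. Viability came from CellTiter-Glo luminescence, and surviving fraction is that signal normalised to the median of DMSO-only wells. Plates were read after 10 minutes at room temperature, and each line, screened three times, was kept only when replicate Pearson r was >0.7 and median Z' was >0.3.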

[2] = compound: CC[C@@H](C(=O)[C@@H](C)[C@@H](O)[C@H](C)[C@@H]1O[C@@H]([C@@H](CC)C(=O)O)CC[C@@H]1C)[C@H]1O[C@]2(C=C[C@@H](O)[C@]3(CC[C@@](C)([C@H]4CC[C@](O)(CC)[C@H](C)O4)O3)O2)[C@H](C)C[C@@H]1C [SALINOMYCIN]; assay: as above; settings: exposure time: 5 days
Procedure, shortened: as §1

Test System	surviving fraction ([1]; 0.5 nM)	surviving fraction ([1]; 1 nM)	surviving fraction ([1]; 5 nM)	surviving fraction ([1]; 10 nM)	surviving fraction ([1]; 50 nM)	surviving fraction ([1]; 100 nM)	surviving fraction ([1]; 500 nM)	surviving fraction ([1]; 1000 nM)	surviving fraction ([2]; 0.5 nM)	surviving fraction ([2]; 1 nM)	surviving fraction ([2]; 5 nM)	surviving fraction ([2]; 10 nM)	surviving fraction ([2]; 50 nM)	surviving fraction ([2]; 100 nM)	surviving fraction ([2]; 500 nM)	surviving fraction ([2]; 1000 nM)
MDAMB361 BREAST	0.765 ± 0.078	0.728 ± 0.036	0.454 ± 0.036	0.332 ± 0.047	0.278 ± 0.023	0.267 ± 0.015	0.324 ± 0.014	0.313 ± 0.038	0.826 ± 0.086	0.866 ± 0.041	0.877 ± 0.0093	0.845 ± 0.058	0.909 ± 0.047	0.845 ± 0.035	0.753 ± 0.014	0.638 ± 0.0085
MDAMB436 BREAST	0.801 ± 0.045	0.797 ± 0.073	0.749 ± 0.077	0.581 ± 0.039	0.318 ± 0.027	0.344 ± 0.033	0.328 ± 0.042	0.352 ± 0.015	0.858 ± 0.039	0.902 ± 0.047	0.668 ± 0.033	0.567 ± 0.042	0.464 ± 0.059	0.375 ± 0.049	0.105 ± 0.0028	0.0963 ± 0.0055
MDAMB453 BREAST	1.01 ± 0.017	1.04 ± 0.03	0.842 ± 0.057	0.356 ± 0.014	0.052 ± 0.027	0.048 ± 0.012	0.0367 ± 0.0049	0.042 ± 0.018	0.969 ± 0.025	0.9587 ± 0.0015	0.978 ± 0.027	0.9897 ± 0.009	1.02 ± 0.058	0.993 ± 0.045	0.56 ± 0.032	0.426 ± 0.06
MDAMB468 BREAST	0.901 ± 0.05	0.826 ± 0.03	0.95 ± 0.039	0.931 ± 0.04	0.92 ± 0.082	0.31 ± 0.022	0.219 ± 0.029	0.218 ± 0.021	1 ± 0.02	1 ± 0.087	1.04 ± 0.026	1.01 ± 0.052	1.12 ± 0.022	1.09 ± 0.04	0.648 ± 0.054	0.329 ± 0.018
MFM223 BREAST	0.757 ± 0.067	0.749 ± 0.036	0.503 ± 0.049	0.33 ± 0.022	0.119 ± 0.0098	0.0942 ± 0.006	0.08 ± 0.0044	0.095 ± 0.006	1.08 ± 0.091	1.05 ± 0.024	1.03 ± 0.03	1.01 ± 0.036	0.979 ± 0.051	0.461 ± 0.03	0.0642 ± 0.0082	0.0428 ± 0.0051
MG63 BONE	0.886 ± 0.028	0.88 ± 0.012	0.976 ± 0.028	0.919 ± 0.017	0.957 ± 0.014	0.733 ± 0.021	0.258 ± 0.0081	0.173 ± 0.0036	0.963 ± 0.02	0.941 ± 0.032	0.98 ± 0.021	0.946 ± 0.045	1.006 ± 0.003	0.871 ± 0.0095	0.167 ± 0.0053	0.081 ± 0.0044
MHM BONE	0.973 ± 0.016	0.966 ± 0.026	0.987 ± 0.043	1.019 ± 0.0027	1.04 ± 0.02	0.912 ± 0.048	0.262 ± 0.023	0.184 ± 0.0051	0.988 ± 0.042	0.981 ± 0.046	1.01 ± 0.019	0.9657 ± 0.0042	1.037 ± 0.009	1.081 ± 0.0025	0.921 ± 0.044	0.694 ± 0.054
NCIH441 LUNG	0.906 ± 0.13	1.02 ± 0.04	0.982 ± 0.046	0.993 ± 0.074	0.609 ± 0.069	0.416 ± 0.033	0.3 ± 0.025	0.308 ± 0.018	1.01 ± 0.034	1.01 ± 0.038	1.06 ± 0.054	0.904 ± 0.06	1.12 ± 0.023	1.05 ± 0.049	0.715 ± 0.049	0.504 ± 0.061
